In PubChem BioAssay AID328 (DTP/NCI, 2004):
Values joined by “and” are separate entries in the source; they are usually repeats but may differ in a detail not shown here. Equal values may be shown once. Inconclusive results and toxic doses are left out. Rule for the calls: active = survival T/C of 150% or more; inactive = T/C below 125% in these data.

Test system: BDF1 mice, P388 leukemia ip, median survival T/C
Assay: NCI In Vivo Anticancer Drug Screen. Data for tumor model P388 Leukemia (intraperitoneal) in B6D2F1 (BDF1) mice
Settings: endpoint: median survival time, higher = longer survival
How it was run: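 Vehicle-dosed animals serve as the reference; survival of compound-dosed, tumour-implanted mice is divided by it.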

[1] = dose: 12.5 mg/kg/injection, schedule: Q01DX009 (ip), vehicle: saline with Tween-80
[2] = dose: 25.0 mg/kg/injection, schedule: Q01DX009 (ip), vehicle: saline with Tween-80
[3] = dose: 50.0 mg/kg/injection, schedule: Q01DX009 (ip), vehicle: saline with Tween-80
[4] = dose: 100.0 mg/kg/injection, schedule: Q01DX009 (ip), vehicle: saline with Tween-80
[5] = dose: 200.0 mg/kg/injection, schedule: Q01DX009 (ip), vehicle: saline with Tween-80
[6] = dose: 100.0 mg/kg/injection, schedule: Q04DX003 (ip), vehicle: saline with Tween-80
[7] = dose: 400.0 mg/kg/injection, schedule: Q04DX003 (ip), vehicle: saline with Tween-80
[8] = dose: 200.0 mg/kg/injection, schedule: Q04DX003 (ip), vehicle: saline with Tween-80

Measured: T/C

O=[n+]1c2ccccc2n([O-])c2ccccc21.[Cl][Cu][Cl]
inactive: dose: 6.25 mg/kg/injection, schedule: Q04DX003 (ip), vehicle: saline with Tween-80 101 % of control | dose: 12.5 mg/kg/injection, schedule: Q04DX003 (ip), vehicle: saline with Tween-80 116 % of control

O=C(O)c1ccc(=O)oc1
inactive: [1] 108 % of control | [2] 99 % of control and 100 % of control | [3] 108 % of control | [4] 124 % of control | [5] 124 % of control

COC(=O)c1ccc(OCCOc2ccc(C(C)(C)CC(C)(C)C)cc2)c([N+](=O)[O-])c1
inactive: dose: 100.0 mg/kg/injection, schedule: Q04DX003 (ip), vehicle: saline sonified 100 % of control | dose: 200.0 mg/kg/injection, schedule: Q04DX003 (ip), vehicle: saline sonified 86 % of control | dose: 400.0 mg/kg/injection, schedule: Q04DX003 (ip), vehicle: saline sonified 86 % of control

CNC(=S)N/N=C(/C)CCC/C(C)=N/NC(=S)NC
inactive: dose: 6.25 mg/kg/injection, schedule: Q01DX009 (ip), vehicle: saline with Tween-80 106 % of control | [1] 108 % of control | [2] 99 % of control

Cc1ccc(C(Br)C2=CC(C)(C)c3ccccc3C2=O)cc1 (centres undefined)
inactive: dose: 100.0 mg/kg/injection, schedule: Q01DX009 (ip), vehicle: Klucel (hydroxypropylcellulose) (HPC) 118 % of control | dose: 100.0 mg/kg/injection, schedule: Q04DX003 (ip), vehicle: Klucel (hydroxypropylcellulose) (HPC) 95 % of control | dose: 200.0 mg/kg/injection, schedule: Q01DX009 (ip), vehicle: Klucel (hydroxypropylcellulose) (HPC) 90 % of control and 95 % of control | dose: 200.0 mg/kg/injection, schedule: Q04DX003 (ip), vehicle: Klucel (hydroxypropylcellulose) (HPC) 113 % of control | dose: 300.0 mg/kg/injection, schedule: Q01DX009 (ip), vehicle: Klucel (hydroxypropylcellulose) (HPC) 113 % of control | dose: 400.0 mg/kg/injection, schedule: Q01DX009 (ip), vehicle: Klucel (hydroxypropylcellulose) (HPC) 100 % of control | dose: 400.0 mg/kg/injection, schedule: Q04DX003 (ip), vehicle: Klucel (hydroxypropylcellulose) (HPC) 113 % of control

O=C1C(=C(C(F)(F)F)C(F)(F)F)CCc2ccc([N+](=O)[O-])cc21
inactive: [6] 110 % of control | [7] 110 % of control

CC(=O)Nc1cc2c(cc1[N+](=O)[O-])-c1ccccc1C2O (centres undefined)
inactive: [4] 100 % of control | [6] 100 % of control | [5] 90 % of control | [8] 104 % of control | [7] 104 % of control

COc1cccc(CCNC(=O)CC#N)c1
inactive: [4] 100 % of control | [6] 110 % of control | [5] 110 % of control | [8] 100 % of control | dose: 400.0 mg/kg/injection, schedule: Q01DX009 (ip), vehicle: saline with Tween-80 100 % of control | [7] 100 % of control

CCCC(CCC)(C(N)=O)C(=O)O
inactive: dose: 50.0 mg/kg/injection, schedule: Q01DX001 (ip), vehicle: Klucel (hydroxypropylcellulose) (HPC) 94 % of control | dose: 100.0 mg/kg/injection, schedule: Q01DX001 (ip), vehicle: Klucel (hydroxypropylcellulose) (HPC) 100 % of control | dose: 200.0 mg/kg/injection, schedule: Q01DX001 (ip), vehicle: Klucel (hydroxypropylcellulose) (HPC) 122 % of control

O=C(NS(=O)(=O)c1ccc(Cl)cc1)c1ccccc1
inactive: [1] 99 % of control | [2] 100 % of control and 109 % of control | [3] 103 % of control and 120 % of control | [4] 100 % of control | [5] 90 % of control

CC(=O)C(C(C)=O)c1cc(NS(=O)(=O)c2ccccc2)ccc1O
inactive: dose: 100.0 mg/kg/injection, schedule: Q01DX001 (ip), vehicle: saline with Tween-80 104 % of control | dose: 200.0 mg/kg/injection, schedule: Q01DX001 (ip), vehicle: saline with Tween-80 100 % of control | dose: 400.0 mg/kg/injection, schedule: Q01DX001 (ip), vehicle: saline with Tween-80 95 % of control
